Common to all, as to type: biochemical
For experiment [1], the target named is T1, prolyl endopeptidase (Rattus norvegicus, UniProt O70196).
T1 construct: prolyl endopeptidase extracted from rat brain; from tissue; host or cells: rat brain
T1 sequence (O70196 1-710): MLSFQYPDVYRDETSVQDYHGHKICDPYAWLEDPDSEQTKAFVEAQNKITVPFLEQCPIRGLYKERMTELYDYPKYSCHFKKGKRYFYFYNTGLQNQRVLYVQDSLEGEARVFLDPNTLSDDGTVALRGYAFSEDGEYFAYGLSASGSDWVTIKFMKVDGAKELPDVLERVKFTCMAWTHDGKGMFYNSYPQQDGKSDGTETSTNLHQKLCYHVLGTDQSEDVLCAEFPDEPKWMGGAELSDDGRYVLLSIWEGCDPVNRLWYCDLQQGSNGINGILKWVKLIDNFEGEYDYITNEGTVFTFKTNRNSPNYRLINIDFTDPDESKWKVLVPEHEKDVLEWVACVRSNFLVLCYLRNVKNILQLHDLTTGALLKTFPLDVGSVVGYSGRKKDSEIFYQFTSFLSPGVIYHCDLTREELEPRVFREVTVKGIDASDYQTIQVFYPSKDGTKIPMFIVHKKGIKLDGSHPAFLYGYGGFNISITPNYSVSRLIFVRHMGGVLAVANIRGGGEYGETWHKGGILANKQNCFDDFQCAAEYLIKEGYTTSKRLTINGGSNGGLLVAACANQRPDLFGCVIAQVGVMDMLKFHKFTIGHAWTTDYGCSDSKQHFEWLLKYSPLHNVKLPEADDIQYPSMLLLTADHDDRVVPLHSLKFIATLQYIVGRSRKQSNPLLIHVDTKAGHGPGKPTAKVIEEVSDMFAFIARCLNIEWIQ
As to the kind of experiment: Prolyl endopeptidase-inhibitory activity. The settings on record: for inhibition at 0.1 µM: read-out: inhibition of prolyl endopeptidase. Here is the method: Prolyl endopeptidase-inhibitory activity
A mixture of a 0.1M potassium-sodium phosphate buffer (pH 7.0, 2675 μl ), a solution of the compound of the present invention in a 0.1M potassium-sodium phosphate buffer (pH 7.0, 100 μl ) and a solution of prolyl endopeptidase extracted from rat brain in a 25 mM sodium phosphate buffer (100 μl ) [123 unit/1, pH 6.8, containing 1 mM dithiothreitol and 0.5 mM EDTA, prepared by the method described in J. Neurochem., 35, 527 (1980)] was preincubated at 30° C. for 30 minutes. Thereto was added a 0.2 mM solution of 7-(N-succinyl-glycyl-prolyl)-4methylcoumarinamide (Peptide Institute, INC.) in a 0.1M potassium-sodium phosphate buffer (pH 7.0, 125 μl), and the mixture was incubated at 30° C. for 1 hour. The reaction mixture was immersed in ice (0° C.) to terminate the reaction, and the fluorescence (a1) was determined ten minutes later (excitation at 370 nm and emission at 440 nm). Concurrently, an experiment wherein, in the above system, the prolyl endopeptidase solution was substituted for a 25 mM sodium phosphate buffer (pH 6.8, containing 1 mM dithiothreitol and 0.5 mM EDTA) and an experiment wherein the solution of the compound of the present invention was substituted for a 0.1M potassium-sodium phosphate buffer (pH 7.0) were conducted. Each fluorescence (a2 and a3) was determined [See Tanpakushitsu Kakusan Koso, 29, 127 (1984)]. The prolyl endopeptidase inhibition was calculated by the following formula, and IC50, a concentration necessary for 50% inhibition, was estimated by using a semilogarithmic graph paper. [formula]

In experiment [2] the target is T2, trypsin (Bos taurus, UniProt P00760).
T2 construct: purchased Sigma; host or cells: bovine pancreas
T2 sequence (P00760 24-246): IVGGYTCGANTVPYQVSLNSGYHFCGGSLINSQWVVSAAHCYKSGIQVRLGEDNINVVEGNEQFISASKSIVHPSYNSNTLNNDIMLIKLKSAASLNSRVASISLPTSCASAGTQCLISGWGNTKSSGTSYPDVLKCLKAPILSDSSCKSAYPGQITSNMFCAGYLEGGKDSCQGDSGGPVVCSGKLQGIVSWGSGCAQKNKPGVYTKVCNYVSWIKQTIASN
As to the kind of experiment: Trypsin-inhibitory activity. As to conditions: concentration 0.1 μM; bovine pancreas, pH 8.0. Here is the method:
(§1) Inhibitory activity against various proteases
(§2) The compound of the present invention having predetermined concentrations was tested for the specificity of the inhibitory activity against various proteases according to a known test method.
(§3) The methods for the determination of the inhibitory activity against various proteases other than prolyl endopeptidase and the method for calculating the inhibition are as follows.
Determination of trypsin-inhibitory activity
In the present invention, a 50 mM Tris-HCI buffer (pH 8.0) was used as a buffer for measurement.
To a mixture of the above-mentioned buffer (850 μl ), a solution of the compound of the present invention in the same buffer (50 μl ) and a 0.02 μM solution of trypsin (derived from bovine pancreas, Sigma) in the same buffer (50 μl ) was added a 200 μM solution of 7-(prolyl-phenylaranyl-arginyl)-4methylcoumarinamide (Peptide Institute, Inc.) in the same buffer (50 μl), and the mixture was incubated at 30° C. for 1 hour. The reaction mixture was immersed in ice (0° C.) to terminate the reaction, and the fluorescence (b1) was determined 1 hour later (excitation at 370 nm and emission at 440 nm). Concurrently, an experiment wherein, in the system above, the trypsin solution was substituted for a buffer and an experiment wherein the solution of the compound of the present invention was substituted for said buffer were conducted. Each fluorescence (b2 and b3) was determined.
(§4) Using the fluorescence x1, x2 and x3 wherein x is b, c, d, e or f, measured in the above-mentioned manner, the inhibition against various proteases was calculated by the following formula: [formula]

Experiment [3] addresses T3, chymotrypsin (Bos taurus, UniProt P00766).
T3 construct: purchased Sigma; host or cells: bovine pancreas
Briefly: Chymotrypsin-inhibitory activity. As to conditions: concentration 0.1 μM; bovine pancreas, pH 8.0. Here is the method:
as §1, §2, §3
Determination of chymotrypsin-inhibitory activity
In completely the same manner as above, respective fluorescence (c1, c2 and c3) was determined using a 50 mM Tris-HCl buffer (pH 8.0) as a buffer for determination, a 0.2 μM solution of chymotrypsin (derived from bovine pancreas, Sigma) in the same buffer as an enzyme solution, and a 200 μM solution of 7-(N-succinyl-leucyl-leucyl-varyl-tyrosyl)-4-methylcoumarinamide (Peptide Institute, Inc.) in the same buffer as a substrate solution.
as §4

In experiment [4] the test system is leucine aminopeptidase. As to the kind of experiment: Leucine aminopeptidase-inhibitory activity. The settings on record: concentration 0.1 μM; swine kidney, pH 8.0. Here is the method: as §1, §2, §3
Determination of leucine aminopeptidase-inhibitory activity
In completely the same manner as above, respective fluorescence (d1, d2 and d3) was determined using a 50 mM Tris-HCl buffer (pH 8.0) as a buffer for determination, a 0.2 μM solution of leucine aminopeptidase (derived from swine kidney, Sigma) in the same buffer as an enzyme solution and a 200 μM solution of 7-leucyl-4-methyl-coumarinamide (Peptide Institute, Inc.) in the same buffer as a substrate solution.
as §4

In experiment [5] the target is T4, elastase (Sus scrofa, UniProt P00772).
T4 construct: purchased Sigma; host or cells: swine pancreas
T4 sequence (P00772 27-266): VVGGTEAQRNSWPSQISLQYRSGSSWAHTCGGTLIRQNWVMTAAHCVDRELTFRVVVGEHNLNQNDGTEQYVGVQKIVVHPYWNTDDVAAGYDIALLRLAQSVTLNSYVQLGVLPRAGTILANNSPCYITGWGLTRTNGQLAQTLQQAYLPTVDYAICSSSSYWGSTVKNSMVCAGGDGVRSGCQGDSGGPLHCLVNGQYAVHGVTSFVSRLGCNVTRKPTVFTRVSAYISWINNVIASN
As to the kind of experiment: Elastase-inhibitory activity. The settings on record: concentration 0.1 μM; swine pancreas, pH 8.5. Here is the method:
as §1, §2, §3
Determination of elastase-inhibitory activity
In completely the same manner as above, respective fluorescence (e1, e2 and e3) was determined using a 1 mM Tris-HCl buffer (pH 8.5) as a buffer for determination, a 0.2 μM solution of elastase (derived from swine pancreas, Sigma) in the same buffer as an enzyme solution and a 200 μM solution of 7-(N-succinyl-aranyl-prolyl-aranyl)-4-methylcoumarinamide (Peptide Institute, Inc.) in the same buffer as a substrate solution.
as §4

Experiment [6] addresses T5, cathepsin B (Bos taurus, UniProt P07688).
T5 construct: purchased Sigma; host or cells: bovine spleen
Briefly: Cathepsin B-inhibitory activity. As to conditions: concentration 0.1 μM; bovine spleen, pH 6.0. Here is the method: as §1, §2, §3
Determination of cathepsin B-inhibitory activity
In completely the same manner as above, respective fluorescence (f1, f2 and f3) was determined using a 100 mM sodium phosphate buffer (pH 6.0; containing 1.33 mM EDTA Na2) as a buffer for determination, a 0.02 μM solution of cathepsin B (derived from bovine spleen, Sigma) in the same buffer as an enzyme solution and a 200 μM solution of 7-(N-benzyloxy-carbonyl-phenylaranyl-arginyl)-4-methylcouma-rinamide (Peptid Institute, Inc.) in the same buffer as a substrate solution.
as §4

One may read the IC50 as the concentration that inhibits the measured activity by half. A high value points to weaker potency. Broadly, the inhibition is the percentage by which the read-out fell short of the control. Turning to `COc1ccc(CNC(=O)N2CCC[C@H]2C(=O)N2CCC[C@H]2C(=O)CO)cc1` [Compound 6, (S)-2-[[(S)-2-(Hydroxyacetyl)-1-pyrrolidinyl]carbonyl]-N-[(4methoxyphenyl)methyl]-1-pyrrolidinecarboxamide], the IC50 in experiment [1] turned out to be 0.7 nM. Moreover, the inhibition at 0.1 µM turned out to be 100% in experiment [1]; 0% in experiment [2]; 0% in experiment [3]; 0% in experiment [5]; 0% in experiment [6]. Moreover, the inhibition of leucine aminopeptidase in experiment [4] was determined as 0%.

Consider `Cc1ccc(CNC(=O)N2CCC[C@H]2C(=O)N2CCC[C@H]2C(=O)COC(=O)c2ccccc2)cc1` [Compound 8, (S)-2-[[(S)-2-(Benzoyloxyacetyl)-1-pyrrolidinyl]carbonyl]-N-[(4methylphenyl)methyl]-1-pyrrolidinecarboxamide], for which, in experiment [1], it took 0.4 nM to reach half-maximal inhibition (IC50). Moreover, the inhibition at 0.1 µM in experiment [1] was found to be 100%; in experiment [2], 0%; in experiment [3], 0%; in experiment [5], 0%; in experiment [6] it was 0%. The inhibition of leucine aminopeptidase in experiment [4] is 0%.

The values above are taken from patent US5536737A, “Compound having prolyl endopeptidase inhibitory activity and pharmaceutical use thereof” (Japan Tobacco Inc., priority 1992, dated 1996).
